From publication PMC7413516, “Antidepressant-like activity and safety profile evaluation of 1H-imidazo[2,1-f]purine-2,4(3H,8H)-dione derivatives as 5-HT1A receptor partial agonists” (PLoS ONE, 2020)
“And” between values parts separate entries of the source, which are not always exact repeats. Equal entries are not always repeated. Marks after values point to notes of the source that are not given here.

What was measured:
[1] = system: mice; test: Forced swim test (FST) in mice; format: in vivo, Swiss albino mice; details: given alone, 0.3 mg/kg s.c., 45 min before test
Source text: (§1) The investigated compounds AZ-853 (8-(4-(4-(2-fluorophenyl)piperazin-1-yl)butyl)-1,3-dimethyl-1H-imidazo[2,1-f]purine-2,4(3H,8H)-dione and AZ-861 (1,3-dimethyl-8-(4-(4-(3-(trifluoromethyl)phenyl)piperazin-1-yl)butyl)-1H-imidazo[2,1-f]purine-2,4(3H,8H)-dione) were synthesised in the Department of Medicinal Chemistry, Faculty of Pharmacy, Jagiellonian University, and their synthesis was described earlier. AZ-853 and AZ-861 were suspended in 1% aqueous solution of Tween 80, and WAY-100635 (Sigma, Germany) was dissolved in 0.9% saline. In acute experiments, the selected compounds AZ-853 (0.156–2.5 mg/kg) and AZ-861 (0.625–2.5 mg/kg) were injected i.p. once 60 min before tests, whereas WAY-100635 (0.3 mg/kg) was administered subcutaneously (s.c.) 45 min before the test. […] In chronic experiments, AZ-853 and AZ-861 were administered i.p. once a day (between 9:00 AM and 10:00 AM) for 16 consecutive days at the minimum active doses selected from FST experiment, i.e. 0.625 and 1.25 mg/kg, respectively. All compounds were administered to mice at a volume of 10 ml/kg and to rats at a volume of 2 ml/kg. The control groups received 1% aqueous solution of Tween 80.
The experiment was carried out according to the method of Porsolt et al.. Swiss albino mice were individually placed in a glass cylinder (25 cm high; 10 cm in diameter) containing 10 cm of water maintained at 23–25°C, and were left there for 6 min. The total duration of immobility was recorded during the last 4 min of a 6-min. A mouse was regarded as immobile when it remained floating on the water, making only small movements to keep its head above it.
(§2) The Swiss albino mice were used in the experiment. AZ-853 and AZ-861 were injected once daily for 16 consecutive days. On the 1st and 15th day the administration of the compounds, 18-h spontaneous animal activity was registered (see below). FST, as described earlier, was performed on the 14th day just before the next treatment. To ensure that the effects observed in FST are not the result of increased motility of animals, on the 13th day, just before the next administration, the locomotor activity was measured as described earlier, from 2 to 6 min after test start, i.e. in the period identical to the duration of FST. Blood and organ collection was performed on the 17th day at 24 h after the last dose and fasting.

[2] = system: mice; test: Locomotor activity (Opto M3 activity monitor) in mice; format: in vivo, Swiss albino mice
Source text: as §1, with “[…].” for “All compounds were administered to mice at a volume of 10 ml/kg and to rats at a volume of 2 ml/kg.”
Locomotor activity was recorded with an Opto M3 multi-channel activity monitor (MultiDevice Software v.1.3, Columbus Instruments). The Swiss albino mice were individually placed in plastic cages (220 × 120 × 130 mm) for 30 min habituation period, and then the crossings of each channel (ambulation) were counted from […] to 6 min, that is the time equal to the observation period in FST. The cages were cleaned up with 70% ethanol after each mouse.
as §2, with “[…].” for “On the 1st and 15th day the administration of the compounds, 18-h spontaneous animal activity was registered (see below).”

[3] = molecular target: T1, human serotonin 5-HT1AR (Homo sapiens, UniProt P08908); design: host or cells: CHO-K1; method as in Pytka et al. [14]; details: cAMP, CHO-K1 cells; ref Pytka et al. [14]; cited from earlier work
T1 sequence (P08908 1-422): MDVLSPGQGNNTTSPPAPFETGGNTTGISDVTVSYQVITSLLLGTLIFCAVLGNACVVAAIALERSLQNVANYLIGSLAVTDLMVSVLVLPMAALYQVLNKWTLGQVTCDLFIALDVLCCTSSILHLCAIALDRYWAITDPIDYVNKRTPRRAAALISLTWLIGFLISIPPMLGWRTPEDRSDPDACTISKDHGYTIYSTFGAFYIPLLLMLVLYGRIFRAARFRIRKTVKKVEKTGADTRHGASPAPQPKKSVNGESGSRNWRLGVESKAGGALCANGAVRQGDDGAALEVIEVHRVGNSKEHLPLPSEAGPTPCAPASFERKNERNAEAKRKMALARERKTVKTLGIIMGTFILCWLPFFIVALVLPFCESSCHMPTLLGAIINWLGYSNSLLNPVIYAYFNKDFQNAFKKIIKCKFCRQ

[4] = molecular target: T2, human serotonin 5-HT1A receptor (Homo sapiens, UniProt P08908); design: host or cells: CHO-K1; method as in Pytka et al. [14]; details: pERK1/2, CHO-K1 cells; ref Pytka et al. [14]; cited from earlier work
T2 sequence (P08908 1-422): T1 sequence (P08908 1-422)

[5] = molecular target: T3, human 5-HT1AR (Homo sapiens, UniProt P08908); design: TEV protease site; Gal4-VP16 transcription factor; host or cells: U2OS (Tango GPCR-bla U2OS parental line); method as in Pytka et al. [14]; details: β-arrestin, U2OS cells; ref Pytka et al. [14]; cited from earlier work
T3 sequence (P08908 1-422): T1 sequence (P08908 1-422)

SMILES | effect on immobility in FST [1] | effect on spontaneous locomotor activity, acute administration ([2]; 4 min period identical to FST, AZ-853 0.625, 1.25, 2.5 mg/kg, AZ-861 1.25 mg/kg, WAY-100635 0.3 mg/kg alone or combined) | Number of movements (individual animals) ([2]; acute, WAY-100635 0.3 mg/kg alone, 3 to 6 min, raw data, 0.3 mg/kg) | Number of movements (mean) ([2]; acute, WAY-100635 alone 0.3 mg/kg s.c., 3 to 6 min) | Emax (%) ± SEM, agonist mode [3] | Emax (%) ± SEM, agonist mode [4] | Emax (%) ± SEM, agonist mode [5]
COc1ccccc1N1CCN(CCN(C(=O)C2CCCCC2)c2ccccn2)CC1 [WAY-100635, reference compound] | had no effect on immobility | did not change the locomotor activity | 130 and 88 and 93 and 242 and 100 and 107 | 122.9 |  |  | 
COc1ccccc1N1CCN(CC(C(=O)NC(C)(C)C)c2ccccc2)CC1 (stereo not shown) [WAY-100135] |  |  |  |  | 2±0.5^c % | 2±1.0^c % | 1±0.5^c %
